Assay results: ChEMBL document CHEMBL1201862, “PubChem BioAssay data set” (2004)
Each block holds one compound with its values, some of them ahead of it. The source made the active and inactive calls.

Columns and labels:
[1] = target: T1, Polyadenylate-binding protein 1 (Homo sapiens, UniProt P11940); assay: MLLE binding blockers, Cy5 peptide tracer – biochemical, fluorescence polarization, Cy5-PAM2 peptide, secondary, miRNA deadenylation inhibitor project, dose response (AID 602260); format: functional; conditions: read-out: IC50_Mean
T1 sequence (P11940 whole entry, the tested form may be a part): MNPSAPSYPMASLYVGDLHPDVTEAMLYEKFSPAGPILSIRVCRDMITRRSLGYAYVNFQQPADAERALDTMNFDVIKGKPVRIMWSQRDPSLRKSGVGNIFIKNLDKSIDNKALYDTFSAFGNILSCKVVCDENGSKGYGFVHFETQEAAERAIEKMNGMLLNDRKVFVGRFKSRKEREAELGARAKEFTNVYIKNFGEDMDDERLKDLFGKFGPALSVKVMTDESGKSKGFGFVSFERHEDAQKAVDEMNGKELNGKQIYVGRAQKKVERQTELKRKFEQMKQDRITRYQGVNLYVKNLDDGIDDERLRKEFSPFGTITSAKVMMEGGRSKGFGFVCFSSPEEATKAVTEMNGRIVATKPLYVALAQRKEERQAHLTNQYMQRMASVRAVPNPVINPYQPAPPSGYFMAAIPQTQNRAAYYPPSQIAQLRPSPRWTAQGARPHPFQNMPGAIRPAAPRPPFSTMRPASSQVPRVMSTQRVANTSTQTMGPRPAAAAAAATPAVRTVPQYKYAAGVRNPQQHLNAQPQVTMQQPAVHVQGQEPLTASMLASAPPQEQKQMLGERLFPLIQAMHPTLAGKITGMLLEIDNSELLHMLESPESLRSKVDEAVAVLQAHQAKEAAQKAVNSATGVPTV

[2] = target: T1, Polyadenylate-binding protein 1; assay: MLLE domain peptide-binding blockers, IC50 – biochemical, fluorescence polarization, FITC-PAM2 peptide, dose response (AID 602259); format: functional; conditions: read-out: IC50_Mean
[3] = target: Voltage-dependent T-type calcium channel subunit alpha-1H (Homo sapiens, UniProt O95180); format: functional;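 note: channel activity triggered by adding a high calcium stimulation buffer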
Chain of Voltage-dependent T-type calcium channel subunit alpha-1H (O95180 whole entry): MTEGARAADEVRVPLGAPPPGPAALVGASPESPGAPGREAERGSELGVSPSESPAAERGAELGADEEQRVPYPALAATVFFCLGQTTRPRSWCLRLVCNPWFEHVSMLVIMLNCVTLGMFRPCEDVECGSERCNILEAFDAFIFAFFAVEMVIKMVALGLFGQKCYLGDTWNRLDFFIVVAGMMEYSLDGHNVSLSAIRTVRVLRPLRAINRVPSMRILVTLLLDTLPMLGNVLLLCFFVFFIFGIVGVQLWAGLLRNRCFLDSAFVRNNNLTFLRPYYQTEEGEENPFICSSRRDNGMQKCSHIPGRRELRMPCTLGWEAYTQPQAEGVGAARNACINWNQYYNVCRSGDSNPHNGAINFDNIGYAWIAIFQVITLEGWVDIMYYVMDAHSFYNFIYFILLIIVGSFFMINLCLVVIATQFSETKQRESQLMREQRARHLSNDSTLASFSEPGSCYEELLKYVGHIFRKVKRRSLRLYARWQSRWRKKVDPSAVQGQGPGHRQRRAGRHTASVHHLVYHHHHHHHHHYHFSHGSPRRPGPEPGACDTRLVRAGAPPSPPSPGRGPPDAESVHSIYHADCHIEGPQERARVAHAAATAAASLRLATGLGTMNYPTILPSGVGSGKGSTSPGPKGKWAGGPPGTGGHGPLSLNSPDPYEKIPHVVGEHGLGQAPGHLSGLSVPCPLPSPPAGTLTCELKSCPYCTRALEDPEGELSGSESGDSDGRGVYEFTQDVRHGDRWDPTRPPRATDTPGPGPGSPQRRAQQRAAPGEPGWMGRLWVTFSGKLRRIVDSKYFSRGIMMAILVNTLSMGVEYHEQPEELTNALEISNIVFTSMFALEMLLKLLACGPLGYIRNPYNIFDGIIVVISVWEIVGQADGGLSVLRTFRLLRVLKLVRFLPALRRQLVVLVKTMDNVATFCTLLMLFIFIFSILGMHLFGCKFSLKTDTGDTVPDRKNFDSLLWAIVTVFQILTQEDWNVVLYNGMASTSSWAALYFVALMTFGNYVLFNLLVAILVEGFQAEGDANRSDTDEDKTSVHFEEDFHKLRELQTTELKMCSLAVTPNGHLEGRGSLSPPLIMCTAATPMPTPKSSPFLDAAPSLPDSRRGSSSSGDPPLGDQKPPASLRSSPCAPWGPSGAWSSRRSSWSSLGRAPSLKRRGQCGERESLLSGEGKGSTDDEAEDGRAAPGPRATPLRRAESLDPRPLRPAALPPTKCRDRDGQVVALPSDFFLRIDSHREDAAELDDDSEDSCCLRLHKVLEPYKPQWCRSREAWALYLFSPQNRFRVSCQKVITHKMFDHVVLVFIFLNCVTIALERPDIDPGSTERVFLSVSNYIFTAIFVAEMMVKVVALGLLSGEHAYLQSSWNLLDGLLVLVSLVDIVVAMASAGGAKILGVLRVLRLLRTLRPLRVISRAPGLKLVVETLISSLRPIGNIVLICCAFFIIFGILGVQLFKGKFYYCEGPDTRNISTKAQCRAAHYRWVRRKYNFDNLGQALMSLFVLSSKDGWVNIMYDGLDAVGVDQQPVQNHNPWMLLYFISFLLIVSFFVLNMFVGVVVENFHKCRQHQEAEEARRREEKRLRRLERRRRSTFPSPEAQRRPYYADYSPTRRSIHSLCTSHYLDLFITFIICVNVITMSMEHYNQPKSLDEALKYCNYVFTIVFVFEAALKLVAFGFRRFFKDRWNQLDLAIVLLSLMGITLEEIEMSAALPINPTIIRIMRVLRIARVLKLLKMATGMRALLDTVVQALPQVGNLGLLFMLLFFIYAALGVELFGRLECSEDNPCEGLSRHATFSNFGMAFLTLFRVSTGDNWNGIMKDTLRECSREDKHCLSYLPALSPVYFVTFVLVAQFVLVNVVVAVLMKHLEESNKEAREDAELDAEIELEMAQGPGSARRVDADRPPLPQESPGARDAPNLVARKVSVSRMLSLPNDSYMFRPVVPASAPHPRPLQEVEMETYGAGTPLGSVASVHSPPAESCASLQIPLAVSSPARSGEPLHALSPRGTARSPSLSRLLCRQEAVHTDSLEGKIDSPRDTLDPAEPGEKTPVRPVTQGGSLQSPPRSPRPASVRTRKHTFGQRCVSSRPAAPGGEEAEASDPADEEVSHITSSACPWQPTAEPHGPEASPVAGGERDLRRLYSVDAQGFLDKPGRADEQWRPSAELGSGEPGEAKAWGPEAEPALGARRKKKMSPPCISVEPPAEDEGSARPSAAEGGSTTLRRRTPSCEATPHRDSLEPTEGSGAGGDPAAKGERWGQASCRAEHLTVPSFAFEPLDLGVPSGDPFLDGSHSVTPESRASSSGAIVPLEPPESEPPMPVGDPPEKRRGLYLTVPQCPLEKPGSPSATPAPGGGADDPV

[4] = loss of viability in HepG2 cells – cell-based, CellTiter-Glo, cherry-picked, cytotoxicity control for Shn3 inhibitor project, dose response (AID 624134); format: functional
[5] = non-specific 3'UTR reporter inhibition in Clone20-Shn3RL – cell-based, Renilla luciferase, cherry-picked, counter-screen for Shn3 inhibitor project, dose response (AID 624133); format: functional
[6] = reduction of Shn3 3'UTR-driven luciferase in osteoblasts – cell-based, Clone20 osteoblasts, firefly luciferase, cherry-picked, dose response (AID 624132); format: functional;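 note: firefly luciferase luminescence from reporter carrying the Shn3 3'UTR in osteoblasts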
[7] = target: Cytochrome P450 3A4 (Homo sapiens, UniProt P08684);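 note: CYP3A4 tested as one member of a cytochrome P450 panel screen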
Chain of Cytochrome P450 3A4 (P08684 whole entry): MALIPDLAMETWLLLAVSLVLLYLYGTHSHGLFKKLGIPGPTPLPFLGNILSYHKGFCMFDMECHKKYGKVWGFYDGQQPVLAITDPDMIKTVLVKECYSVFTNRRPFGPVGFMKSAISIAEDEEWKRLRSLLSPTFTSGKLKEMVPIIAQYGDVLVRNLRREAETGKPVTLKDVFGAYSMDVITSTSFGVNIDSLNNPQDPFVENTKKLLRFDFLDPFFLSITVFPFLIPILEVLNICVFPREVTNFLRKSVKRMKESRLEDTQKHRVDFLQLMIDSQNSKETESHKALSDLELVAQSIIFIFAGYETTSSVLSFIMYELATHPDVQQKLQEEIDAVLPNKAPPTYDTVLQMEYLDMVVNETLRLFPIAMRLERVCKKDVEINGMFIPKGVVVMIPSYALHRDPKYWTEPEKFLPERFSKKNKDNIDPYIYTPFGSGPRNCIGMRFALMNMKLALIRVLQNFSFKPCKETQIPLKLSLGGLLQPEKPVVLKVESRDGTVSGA

[8] = target: T2, Microphthalmia-associated transcription factor (Homo sapiens, UniProt O75030); assay: reducers of TRPM1 reporter luminescence, concentration series – cell-based, SK-MEL-5, cherry-picked, set 3, MITF inhibitor project, dose response (AID 493073); format: functional;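 note: SK-MEL-5 melanoma cells with luciferase driven by the MITF target TRPM1 promoter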
T2 sequence (O75030 whole entry): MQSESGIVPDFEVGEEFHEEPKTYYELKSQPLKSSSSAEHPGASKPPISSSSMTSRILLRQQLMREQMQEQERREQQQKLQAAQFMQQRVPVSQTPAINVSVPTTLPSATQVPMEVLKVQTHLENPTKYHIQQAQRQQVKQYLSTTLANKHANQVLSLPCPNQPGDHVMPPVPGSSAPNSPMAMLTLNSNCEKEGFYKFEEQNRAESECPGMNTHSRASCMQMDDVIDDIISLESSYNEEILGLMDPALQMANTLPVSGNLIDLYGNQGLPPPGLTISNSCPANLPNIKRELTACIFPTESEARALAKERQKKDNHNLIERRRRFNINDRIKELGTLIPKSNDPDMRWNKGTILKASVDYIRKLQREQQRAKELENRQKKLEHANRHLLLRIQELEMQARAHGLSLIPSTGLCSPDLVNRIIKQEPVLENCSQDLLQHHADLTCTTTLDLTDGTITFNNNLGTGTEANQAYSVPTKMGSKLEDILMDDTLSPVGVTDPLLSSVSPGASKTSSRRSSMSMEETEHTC

[9] = HIV-1 AD8 envelope cell-cell fusion blockers – cherry-pick, dose response (AID 652062); format: functional, cell-based;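 note: luciferase signal from cell-cell fusion driven by HIV-1 clade B AD8 Env; potency is for inhibitors of fusion seen as a drop in luminescence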
[10] = blockers of HIV-1 ZM109 envelope-driven cell-cell fusion – HeLa effector, CEM target cells, luciferase, cherry-pick, dose response (AID 652058); format: functional, cell-based;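 note: luciferase signal from HIV-1 Env mediated cell-cell fusion of effector and target cells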
[11] = blockers of HIV-1 envelope-mediated cell-cell fusion – cherry-pick, dose response (AID 652057); format: functional, cell-based

IC50 [1]: > 66 µM (inactive)
IC50 [2]: > 66 µM (inactive)
Compound: CCOC(=O)C1CCCN(C(=O)c2ccccc2SCCOC)C1 (stereo unspecified)

EC50 [3]: 2.49 µM (active)
Compound: N#CC(c1cccc(C(F)(F)F)c1)(c1ncc(C(F)(F)F)cc1Cl)N1CCOCC1 (stereo unspecified)

Compound: CCN(CC)S(=O)(=O)c1ccc(N(C)Cc2ccc(C(F)(F)F)cc2)nc1
EC50 [3]: 10.4 µM (active)
AC50 [4]: 41.1 µM (active)
AC50 [5]: 25.9 µM (active)
AC50 [6]: 5.85 µM (active)

IC50 [1]: > 66 µM (inactive)
IC50 [2]: > 66 µM (inactive)
Compound: c1ccc2c(c1)nnn2Cc1nnc2sc(-c3ccc4c(c3)OCCO4)nn12

Compound: Cc1nc(N)nc(S)c1CCCNc1ccccc1
AC50 [7]: 6.31 µM (inconclusive)
IC50 [1]: > 66 µM (inactive)
IC50 [2]: > 66 µM (inactive)

AC50 [8]: 1.41 µM (active)
Compound: NC(=O)c1cc([N+](=O)[O-])ccc1NCc1ccc(N)cc1

IC50 [1]: > 66 µM (inactive)
IC50 [2]: 39.5 µM (inactive)
Compound: N=c1c(C(=O)NCc2ccco2)cc2c(=O)n3ccccc3nc2n1CC1CCCO1 (stereo unspecified)

IC50 [1]: > 66 µM (inactive)
IC50 [2]: > 66 µM (inactive)
Compound: O=C(NC(Sc1ccc(Cl)cc1)C(=O)O)c1ccccc1 (stereo unspecified)

Compound: C[C@H](CO)N1C[C@H](C)[C@H](CN(C)S(=O)(=O)c2ccc(F)cc2)Oc2cc(Br)ccc2S1(=O)=O
AC50 [9]: 4.74 µM (active)
AC50 [10]: 1.13 µM (active)
AC50 [11]: 1.5 µM (active)

Compound: C[C@@H]1CN([C@@H](C)CO)C(=O)c2cccc(NC(=O)C3CCCCC3)c2O[C@H]1CN(C)Cc1ccccc1
AC50 [9]: 22.1 µM (active)
AC50 [10]: 10.8 µM (active)
AC50 [11]: 39.6 µM (active)

Compound: CCCC#Cc1ccc2c(c1)O[C@H](CN(C)S(=O)(=O)c1cccc(F)c1)[C@H](C)CN([C@@H](C)CO)S2(=O)=O
AC50 [9]: 25.9 µM (active)
AC50 [10]: 15.2 µM (active)
AC50 [11]: 25 µM (active)
